The values that follow are results of earlier work, collected in patent US6815453B1, “Cosmetic and dermatological light protection formulations having a content of triazine derivatives and glyceryl compounds” (Beiersdorf AG, priority 1996, dated 2004).

Structures are written as SMILES. A value given as a limit tells only on which side of the number the result lay.

In the case of `CCCCC(CC)COC(=O)c1ccc(Nc2nc(Nc3ccc(C(=O)OCC(CC)CCCC)cc3)nc(Nc3ccc(C(=O)OCC(CC)CCCC)cc3)n2)cc1` (stereo not drawn) [UVINUL® T 150, 4,4′,4″-(1,3,5-triazine-2,4,6-triyltriimino)-trisbenzoic acid tris(2-ethylhexyl ester)], the “corresponding dissolved, and therefore active, UV filter substance” value (corresponding to the maximum solubility in known solvents) was 1-1.5 % by weight. The “maximum amount of the filter dissolved by known solvents” value (known solvents for this UVB filter, prior-art statement) is recorded as at most 15 % by weight. In addition, the solubility in lipids result (stated in words as the main disadvantage) is on record as “poor solubility in lipids”.
